Data on six molecules can be found in patent US11505617B2, “Benzodiazepine derivatives” (IMMUNOGEN, INC., priority 2009, dated 2022).

Broadly, the IC50 is the concentration at which inhibition is half-maximal.

Where two headings read alike, the source gives them in different places.

The subject of one assay is Ramos cells. The assay is described as follows: In vitro cytotoxicity, Ramos cells. It is filed as cell-based. The note with it: Homo sapiens, read-out: IC50, in vitro antiproliferative activity. From the text:
(§1) The in vitro cytotoxicity of the cytotoxic compounds (e.g., indolinobenzodiazepine or oxazolidinobenzodiazepine), derivatives thereof, dimers thereof or conjugates thereof of the present invention can be evaluated for their ability to suppress proliferation of various cancerous cell lines in vitro (Tables 1, 2 in FIGS. 31, 32.). For example, cell lines such as the human breast carcinoma line SK-Br-3, or the human epidermoid carcinoma cell line KB, can be used for the assessment of cytotoxicity of these new compounds. Cells to be evaluated can be exposed to the compounds for 72 hours and the surviving fractions of cells measured in direct assays by known methods. IC50 values can then be calculated from the results of the assays.
(§2) Conjugates of cell-binding agents with cytotoxic agents of the invention can be evaluated for their ability to suppress proliferation of various unwanted cell lines in vitro. For example, cell lines such as the human colon carcinoma line COLO 205, the rhabdomyosarcoma cell line RH-30, and the multiple myeloma cell line MOLP-8 can be used for the assessment of cytotoxicity of these conjugates. Cells to be evaluated can be exposed to the compounds for 1-5 days and the surviving fractions of cells measured in direct assays by known methods. IC50 values can then be calculated from the results of the assays.
General Procedure Used: Samples of IGN Free Drugs or IGN Conjugates were added to 96-well flat bottomed tissue culture plates and titrated using serial dilutions to cover the desired molar range. Antigen positive (Ag+) or Antigen negative (Ag−) cells were added to the wells in specific cell densities in such a way that there were triplicate samples for each drug concentration for each corresponding cell line. The plates were then incubated at 37° C. in an atmosphere of 5% CO2 for 4-5 days depending on the cell line. COLO 205 (1,000 cells/well), Namalwa (3,000 cells/well)—4 days; RH30(1,000 cells/well), Ramos (10,000 cells/well), KB (1,000 cells/well)—5 days)
(§3) At the end of the incubation period cytotoxic potencies were then assessed using a WST-based cell viability assay and surviving cells were measured by developing with WST (2-7 hours). The absorbance in each well was measured and the surviving fraction of cells at each concentration was plotted to reveal the cytotoxicity and antigen specificity (of the conjugates).

Assay [1] concerns single stranded DNA (ssDNA). Put plainly: DNA probe assay control with single stranded DNA. The note with it: control experiments. It is filed as binding. How it is done: (§4) Reaction conditions: dsDNA ([…] final concentration) in 100 mM TRIS, 1 mM EDTA, pH 8 was mixed with 3.7 molar equivalents of IGN-01 (compound 18), IGN-02 (compound 19), or IGN-09 (compound 15) dissolved in acetonitrile (final acetonitrile concentration <2% by volume). The reaction was incubated at 15° C. (below TM of the dsDNA) and 10 μl aliquots are injected on reverse phase-HPLC at various time points after mixing
(§5) HPLC conditions: Waters Xbridge C8 2.1×50 mm column, Buffer A: 100 mM hexafluoroisopropanol, 16.3 mM triethylamine, in water, Buffer B: Methanol; 98% A→100% B over 32 min, 0.25 ml/min flow, 60° C. column heat, 260 nm detection. Areas under the curve (AUC) for the probe DNA peak and the resulting IGN/DNA adduct peak are used to determine the % crosslinking at each time point of incubation.
(§6) DNA annealing: single stranded DNA (Invitrogen) was annealed into dsDNA using a Peltier thermal cycler (PTC-200, MJ Research). 1 mM DNA in 100 mM TRIS, 1 mM EDTA pH 8 was heated to 80° C. and then gradually cooled to 4° C. over 90 min in 15 degree steps. The resulting dsDNA was kept at 4° C. until used in the assay.

Assay [2] relates to double stranded DNA (dsDNA). The assay is described as follows: DNA probe assay for IGN dimer binding and alkylation to double stranded DNA. As to conditions: for binding and covalent adduct formation with double stranded DNA: dsDNA containing guanine residues on opposite strands. The procedure: as §4, §5, §6
The next assay concerns COLO205-MDR. The assay is described as follows: In vitro cytotoxicity, multi-drug resistant COLO 205 MDR cells. It is filed as cell-based, human. The note with it: free compound; multi-drug resistant line vs COLO205.
Source text: as §1
Conjugates of cell-binding agents with cytotoxic agents of the invention can be evaluated for their ability to suppress proliferation of various unwanted cell lines in vitro. […] Cells to be evaluated can be exposed to the compounds for 1-5 days and the surviving fractions of cells measured in direct assays by known methods. IC50 values can then be calculated from the results of the assays. […]
At the end of the incubation period cytotoxic potencies were then assessed using a WST-based cell viability assay and surviving cells were measured by developing with WST (2-7 hours). […]

The next assay has as its system RH30 cells. The assay is described as follows: In vitro cytotoxicity of conjugates, RH30 cells. It is filed as cell-based, human.
Source text: as §2
General Procedure Used: Samples of IGN Free Drugs or IGN Conjugates were added to 96-well flat bottomed tissue culture plates and titrated using serial dilutions to cover the desired molar range. Antigen positive (Ag+) or Antigen negative (Ag−) cells were added to the wells in specific cell densities in such a way that there were triplicate samples for each drug concentration for each corresponding cell line. […]
as §3

In the case of `COC(=O)COc1cc(COc2cc3c(cc2OC)C(=O)N2c4ccccc4C[C@H]2C=N3)cc(COc2cc3c(cc2OC)C(=O)N2c4ccccc4C[C@H]2C=N3)c1` [IGN05], the IC50 in the assay with Ramos cells (Ramos) was below 1 pM.
For `COc1cc2c(cc1OCc1cccc(COc3cc4c(cc3OC)C(=O)N3COC[C@H]3C=N4)c1)N=C[C@@H]1COCN1C2=O` [IGN-02], in assay [1], the “covalent adduct formation with single stranded DNA” value is “did not form covalent adducts”. Further, the “binding and covalent adduct formation with double stranded DNA” value (“binding and covalent adduct formation” below) in assay [2] was “bind and covalently adduct”.
As for `COc1cc2c(cc1OCCCOc1cc3c(cc1OC)C(=O)N1c4ccccc4C[C@H]1C=N3)N=C[C@@H]1Cc3ccccc3N1C2=O` [IGN-09], the “covalent adduct formation with single stranded DNA” value in assay [1] is reported as “did not form covalent adducts”. In the assay on Ramos cells (Ramos), the IC50 is below 1 pM. The “fold higher IC50 on COLO205-MDR than COLO205” value with COLO205-MDR is 4 fold. Moreover, the “binding and covalent adduct formation” value in assay [2] is “bind and covalently adduct”.
Consider `COc1cc2c(cc1OCc1cccc(COc3cc4c(cc3OC)C(=O)N3c5ccccc5C[C@H]3C=N4)c1)N=C[C@@H]1Cc3ccccc3N1C2=O` [IGN-01], for which the “covalent adduct formation with single stranded DNA” value in assay [1] was “did not form covalent adducts”. Also, the IC50 with Ramos cells (free compounds with and without linker, Ramos cell line (Table 2)) is below 1 pM. In assay [2] (DNA with internal GATC motif vs GTAC sequence), the “rate of DNA binding, dependence on DNA sequence” value is “binds faster to DNA containing an internal GATC motif”. Moreover, the “binding and covalent adduct formation” value in assay [2] is “bind and covalently adduct”. Moreover, the “reaction with DNA probe substituted with deoxyInosine in place of guanine” value in assay [2] (probe containing no C-2 amino group) is “no reaction”.
As for `COC(=O)CCCCOc1cc(COc2cc3c(cc2OC)C(=O)N2c4ccccc4C[C@H]2C=N3)cc(COc2cc3c(cc2OC)C(=O)N2c4ccccc4C[C@H]2C=N3)c1` [IGN03], the IC50 in the assay on Ramos cells (Ramos) was below 1 pM.

B1: huN901-IGN03 (conjugate, chains of the INN, looked up)
VH: QVQLVESGGGVVQPGRSLRLSCAASGFTFSSFGMHWVRQAPGKGLEWVAYISSGSFTIYYADSVKGRFTISRDNSKNTLYLQMNSLRAEDTAVYYCARMRKGYAMDYWGQGTLVTVSS
VL: DVVMTQSPLSLPVTLGQPASISCRSSQIIIHSDGNTYLEWFQQRPGQSPRRLIYKVSNRFSGVPDRFSGSGSGTDFTLKISRVEAEDVGVYYCFQGSHVPHTFGQGTKVEIK
modifications: IGN03 indolinobenzodiazepine payload
For B1, the IC50 was above 3000 pM with RH30 cells (RH30 cells with an excess of unconjugated huN901 antibody) and 15 pM with RH30 cells (antigen positive RH30 cells).
